ChEMBL document CHEMBL3877248, “Further investigation of inhibitors of MRSA pyruvate kinase: Towards the conception of novel antimicrobial agents” (Eur J Med Chem, 2017)
In brackets after ≈: the same amount, converted by molar mass.

How the values were obtained:
Staphylococcus aureus [1] = experiment: Antibacterial activity against Staphylococcus aureus ATCC 29213 measured after 24 hrs by two-fold microbroth dilution method; assay type: functional
[2] = target: T1, Pyruvate kinase (Staphylococcus aureus (strain MRSA252)) (UniProt Q6GG09); experiment: Inhibition of recombinant N-terminal His-tagged methicillin-resistant Staphylococcus aureus MRSA252 pyruvate kinase expressed in Escherichia coli BL21(DE3) at 0.1 uM using PEP as substrate measured after 5 mins by LDH-coupled assay relative to control; conditions: Staphylococcus aureus subsp. aureus MRSA252
T1 sequence (whole entry): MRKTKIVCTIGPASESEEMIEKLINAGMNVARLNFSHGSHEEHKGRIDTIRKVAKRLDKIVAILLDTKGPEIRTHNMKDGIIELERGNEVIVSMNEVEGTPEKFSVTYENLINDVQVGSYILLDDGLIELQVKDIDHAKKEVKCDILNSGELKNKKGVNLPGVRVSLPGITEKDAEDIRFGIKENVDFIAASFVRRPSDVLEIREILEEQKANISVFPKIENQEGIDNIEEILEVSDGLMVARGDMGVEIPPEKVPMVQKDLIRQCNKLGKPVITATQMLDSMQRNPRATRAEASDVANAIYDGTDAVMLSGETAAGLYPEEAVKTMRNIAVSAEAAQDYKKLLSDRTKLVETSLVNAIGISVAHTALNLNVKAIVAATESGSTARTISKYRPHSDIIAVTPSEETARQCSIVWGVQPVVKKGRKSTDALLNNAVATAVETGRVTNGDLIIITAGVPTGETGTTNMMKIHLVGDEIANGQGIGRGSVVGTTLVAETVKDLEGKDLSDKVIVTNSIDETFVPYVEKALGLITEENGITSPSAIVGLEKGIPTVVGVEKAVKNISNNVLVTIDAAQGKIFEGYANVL

[3] = target: T1, Pyruvate kinase (Staphylococcus aureus (strain MRSA252)); experiment: Inhibition of recombinant N-terminal His-tagged methicillin-resistant Staphylococcus aureus MRSA252 pyruvate kinase expressed in Escherichia coli BL21(DE3) at 1 uM using PEP as substrate measured after 5 mins by LDH-coupled assay relative to control; conditions: Staphylococcus aureus subsp. aureus MRSA252
Pyruvate kinase = target: T2, Pyruvate kinase (Staphylococcus aureus (strain MRSA252), UniProt Q6GG09); experiment: Inhibition of recombinant N-terminal His-tagged methicillin-resistant Staphylococcus aureus MRSA252 pyruvate kinase expressed in Escherichia coli BL21(DE3) using PEP as substrate measured after 5 mins by LDH-coupled assay; set-up: species or system Staphylococcus aureus subsp. aureus MRSA252
T2 sequence (Q6GG09 whole entry): T1 sequence (whole entry)

[4] = target: T1, Pyruvate kinase (Staphylococcus aureus (strain MRSA252)); experiment: Inhibition of recombinant N-terminal His-tagged methicillin-resistant Staphylococcus aureus MRSA252 pyruvate kinase expressed in Escherichia coli BL21(DE3) at 10 uM using PEP as substrate measured after 5 mins by LDH-coupled assay relative to control; conditions: Staphylococcus aureus subsp. aureus MRSA252
[5] = Selectivity ratio for inhibition of recombinant N-terminal His-tagged methicillin-resistant Staphylococcus aureus MRSA252 pyruvate kinase over inhibition of human recombinant N-terminal His-tagged pyruvate kinase-R
[6] = Selectivity ratio for inhibition of recombinant N-terminal His-tagged methicillin-resistant Staphylococcus aureus MRSA252 pyruvate kinase over inhibition of human recombinant N-terminal His-tagged pyruvate kinase M2
[7] = Selectivity ratio for inhibition of recombinant N-terminal His-tagged methicillin-resistant Staphylococcus aureus MRSA252 pyruvate kinase over inhibition of human recombinant N-terminal His-tagged pyruvate kinase M1
Staphylococcus aureus [8] = experiment: Antibacterial activity against methicillin-resistant Staphylococcus aureus MRSA252 by two-fold microbroth dilution method; assay type: functional
[9] = Selectivity ratio for inhibition of recombinant N-terminal His-tagged methicillin-resistant Staphylococcus aureus MRSA252 pyruvate kinase over inhibition of human recombinant N-terminal His-tagged pyruvate kinase-L

Compound | MIC>98 (Staphylococcus aureus [1]) [µg/mL] | inhibition [3] [%] | IC50 (Pyruvate kinase) [nM] | further results
O=C(Nc1nc2ccc(Br)cc2s1)c1cccc(Cl)c1O | 4 (≈ 10.4 µM) | – | – | inhibition [2]: 43%
O=C(/C=C/c1cc2ccc(Br)cc2[nH]1)c1cc(Br)ccc1O | >64 | 15 | – | –
O=C(Nc1nc2cc(Br)ccc2[nH]1)c1cc2cc(Br)ccc2[nH]1 | >64 | – | 3 | –
O=C(Nc1ccc(Br)cc1)c1cc2ccc(Br)cc2s1 | >64 | – | – | inhibition [2]: 43%
O=C(Nc1nc2ccccc2s1)c1cc(Br)ccc1O | >64 | 13 | – | –
O=C(/C=C/c1cc2ccc(Br)cc2[nH]1)c1cc2cc(Br)ccc2[nH]1 | >64 | 21 | – | –
COc1ccc(Br)cc1-c1cccc(-c2cc3ccccc3[nH]2)n1 | >64 | 6 | – | –
O=C(Nc1nc2ccc(Br)cc2s1)c1cc(Br)cc(Br)c1O | 1 (≈ 1.97 µM) | – | 4 | –
COc1c(Br)cccc1C(=O)Nc1nc2ccc(Br)cc2s1 | >64 | 22 | – | –
Oc1ccc(Br)cc1/C=N/c1nc2ccc(Br)cc2s1 | 64 (≈ 155 µM) | 41 | – | –
O=C1c2ccc(Br)cc2C(=O)N1c1nc2ccc(Br)cc2s1 | >64 | 34 | – | –
O=C(/C=C/c1c[nH]c2cc(Br)ccc12)c1c[nH]c2ccccc12 | – | 28 | – | –
O=C(Nc1nc2cc(Br)ccc2s1)c1cc(Br)ccc1O | >64 | 48 | – | –
O=C(Nc1cc(Br)ccc1O)c1cc2ccccc2[nH]1 | – | 28 | – | –
CN(C(=O)c1cc(Br)ccc1O)c1nc2ccc(Br)cc2s1 | – | 5 | – | –
O=C(Nc1cc(Br)ccc1O)c1cc2ccc(Br)cc2[nH]1 | >64 | – | 12 | –
COc1ccc(Br)cc1/C=C1\CCc2c([nH]c3ccccc23)C1=O | – | 22 | – | –
O=C(/C=C/c1cc2ccccc2[nH]1)c1ccc(Br)cc1O | >64 | – | 553 | –
COc1ccc(Br)cc1/C=C/C(=O)c1cc2ccc(Br)cc2[nH]1 | >64 | – | 8 | –
O=C(Nc1nc2cc(Br)ccc2s1)c1cc2cc(Br)ccc2[nH]1 | >64 | – | 8 | –

Compound | MIC>98 (Staphylococcus aureus [1]) [µg/mL] | inhibition [3] [%] | IC50 (Pyruvate kinase) [nM] | further results
O=C(Nc1cccc(Br)c1O)c1cc2ccc(Br)cc2[nH]1 | >64 | – | – | –
Oc1ccc(Br)cc1-c1ccnc(-c2cc3ccc(Br)cc3[nH]2)c1 | >64 | – | – | inhibition [2]: 41%
Brc1ccc(-c2cc3cc(Br)ccc3[nH]2)cc1 | – | 21 | – | –
O=C(Nc1ccc(Br)cc1)c1cc2ccc(Br)cc2[nH]1 | >64 | – | 10 | –
O=C(/C=C/c1cc2ccc(Br)cc2[nH]1)c1cccc(Br)c1O | >64 | 41 | – | –
O=C(Nc1nc2ccc(Br)cc2s1)c1cc2ccccc2[nH]1 | >64 | – | – | –
O=C(/C=C/c1cc2ccc(Br)cc2[nH]1)c1cc2ccc(Br)cc2[nH]1 | – | 6 | – | –
COc1ccc(Br)cc1C(=O)Nc1nc2ccc(Br)cc2s1 | >64 | – | 8 | –
O=C(Nc1nc2cc(Br)ccc2[nH]1)c1cc(Br)ccc1O | 4 (≈ 9.73 µM) | – | 11 | –
Cn1c(C(=O)Nc2nc3ccc(Br)cc3s2)cc2ccccc21 | >64 | 41 | – | –
O=C(/C=C/c1c[nH]c2ccc(Br)cc12)c1c[nH]c2ccccc12 | – | 1 | – | –
O=C(/C=C/c1cc2ccccc2[nH]1)c1cc(Br)ccc1O | – | 10 | – | –
O=C(Nc1nc2ccc(Br)cc2s1)c1cc2cc(Br)ccc2[nH]1 | >64 | – | 23 | –
Brc1ccc(-c2c[nH]c3cc(Br)ccc23)cc1 | 2 (≈ 5.7 µM) | – | – | –
O=C(Nc1nc2ccc(Br)cc2s1)c1ccccc1O | >64 | 65 | – | –
O=C(Nc1ccc(Br)cc1)c1cc2ccccc2[nH]1 | >64 | 41 | – | –
Brc1ccc(-c2c[nH]c3ccc(Br)cc23)cc1 | 1 (≈ 2.85 µM) | – | – | inhibition [2]: 20%
O=C(/C=C/c1c[nH]c2cc(Br)ccc12)c1cc2ccccc2[nH]1 | – | 45 | – | –
O=C(Nc1nc2cc(Br)ccc2[nH]1)c1cc2ccc(Br)cc2[nH]1 | >64 | – | 2 | –
O=C(/C=C/c1cc2ccc(Br)cc2[nH]1)c1cc2ccccc2[nH]1 | >64 | 38 | – | –

Compound | MIC>98 (Staphylococcus aureus [1]) [µg/mL] | inhibition [3] [%] | IC50 (Pyruvate kinase) [nM] | further results
Oc1ccc(Br)cc1-c1nnc(-c2cc3ccccc3[nH]2)o1 | >64 | 8 | – | –
O=C(/C=C/c1cc(Br)ccc1O)c1cc2ccccc2[nH]1 | 2 (≈ 5.84 µM) | – | 355 | –
O=C(/C=C/c1cc2ccc(Br)cc2[nH]1)c1ccc(Br)cc1O | >64 | – | 132 | –
Oc1c(Br)cccc1CNc1nc2ccc(Br)cc2s1 | – | 17 | – | –
COc1ccc(Br)cc1-c1nnc(-c2cc3ccccc3[nH]2)o1 | >64 | 19 | – | –
O=C(/C=C/c1cc2ccccc2[nH]1)c1cc2ccc(Br)cc2[nH]1 | >64 | – | 5 | –
O=C(/C=C/c1cc2ccc(Br)cc2[nH]1)c1ccccc1O | >64 | – | 343 | –
O=C(/C=C/c1cccc(Br)c1O)c1cc2ccc(Br)cc2[nH]1 | >64 | – | 403 | –
O=C(Nc1nc2ccc(Br)cc2s1)c1ccc(Br)cc1O | >64 | – | – | –
O=C(Nc1nc2ccc(Br)cc2s1)c1cccc(Br)c1O | 4 (≈ 9.34 µM) | – | – | –
O=C(/C=C/c1ccc(Br)cc1O)c1cc2ccc(Br)cc2[nH]1 | >64 | – | 14 | –
O=C(/C=C/c1c[nH]c2ccc(Br)cc12)c1cc2ccccc2[nH]1 | >64 | – | 1780 | –
O=C(/C=C/c1cc2ccccc2[nH]1)c1cccc(Br)c1O | – | – | – | inhibition [4]: 2%
O=C1NC[C@@H](c2c[nH]c3cc(Br)ccc23)N[C@H]1c1c[nH]c2cc(Br)ccc12 [CIS-3,4-DIHYDROHAMACANTHIN B] | – | – | – | Selectivity ratio [5]: 166 to 600; Selectivity ratio [6]: 166 to 600; Selectivity ratio [7]: 166 to 600; MIC (Staphylococcus aureus [8]): 12.5 µg/mL (≈ 25.6 µM); Selectivity ratio [9]: 166 to 600
O=C(/C=C/c1cc(Br)ccc1O)c1cc2ccc(Br)cc2[nH]1 | 1 (≈ 2.37 µM) | – | 24 | –
O=C(Nc1nc2ccc(Br)cc2s1)c1cc(Br)ccc1O | >64 | – | – | –
O=C(c1ncc(-c2c[nH]c3cc(Br)ccc23)[nH]1)c1c[nH]c2ccccc12 [BROMODEOXYTOPSENTIN] | – | – | 60 | –
O=C(Nc1nc2cc(Br)ccc2s1)c1cc2ccccc2[nH]1 | >64 | – | – | –
